Data published in BindingDB's records for patent US11547697 (Millennium Pharmaceuticals, 2023).

Each compound was assayed against Phosphatidylinositol 4,5-bisphosphate 3-kinase catalytic subunit beta isoform (Homo sapiens, UniProt P42338) (assay: Inhibition Assay of PI3K).
Chain of Phosphatidylinositol 4,5-bisphosphate 3-kinase catalytic subunit beta isoform (P42338 whole entry, canonical isoform): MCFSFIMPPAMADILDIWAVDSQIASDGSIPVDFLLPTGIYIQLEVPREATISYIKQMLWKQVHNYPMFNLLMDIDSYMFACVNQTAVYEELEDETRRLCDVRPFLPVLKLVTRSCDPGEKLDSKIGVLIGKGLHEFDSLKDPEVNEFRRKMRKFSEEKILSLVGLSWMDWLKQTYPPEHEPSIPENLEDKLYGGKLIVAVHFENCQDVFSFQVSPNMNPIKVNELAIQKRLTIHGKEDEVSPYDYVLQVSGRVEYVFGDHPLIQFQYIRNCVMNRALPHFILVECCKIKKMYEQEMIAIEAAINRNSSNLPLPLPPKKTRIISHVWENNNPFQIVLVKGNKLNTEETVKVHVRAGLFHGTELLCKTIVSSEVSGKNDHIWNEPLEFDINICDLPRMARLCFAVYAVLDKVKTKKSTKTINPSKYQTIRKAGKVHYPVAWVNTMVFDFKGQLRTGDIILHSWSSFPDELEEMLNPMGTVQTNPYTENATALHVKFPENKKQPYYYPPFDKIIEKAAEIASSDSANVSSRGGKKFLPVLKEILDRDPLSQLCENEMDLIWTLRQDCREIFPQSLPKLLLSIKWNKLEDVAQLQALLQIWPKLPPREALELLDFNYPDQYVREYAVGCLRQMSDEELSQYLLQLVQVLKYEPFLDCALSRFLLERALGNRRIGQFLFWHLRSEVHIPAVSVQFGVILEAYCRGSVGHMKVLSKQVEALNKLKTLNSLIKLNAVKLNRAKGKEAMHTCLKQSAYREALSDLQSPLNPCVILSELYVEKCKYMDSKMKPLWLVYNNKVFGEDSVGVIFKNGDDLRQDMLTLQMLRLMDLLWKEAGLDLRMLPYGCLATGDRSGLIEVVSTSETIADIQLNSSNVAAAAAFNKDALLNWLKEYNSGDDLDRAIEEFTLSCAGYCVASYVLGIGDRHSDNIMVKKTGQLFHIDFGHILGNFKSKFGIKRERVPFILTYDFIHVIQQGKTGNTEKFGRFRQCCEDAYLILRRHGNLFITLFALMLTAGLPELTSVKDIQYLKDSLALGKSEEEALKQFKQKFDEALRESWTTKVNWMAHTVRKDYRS
Description: (§1) An exemplary system is PI 3-Kinase (human) HTRF Assay from Upstate. […] Briefly, the assay is a time resolved FRET assay that indirectly measures PIP3 product formed by the activity of a PI3-K. The kinase reaction is performed in a microtitre plate (e.g., a 384 well microtitre plate). The total reaction volume is approximately 20 ul per well. In the first step, each well receives 2 ul of test compound in 20% dimethylsulphoxide resulting in a 2% DMSO final concentration. Next, approximately 14.5 ul of a kinase/PIP2 mixture (diluted in 1× reaction buffer) is added per well for a final concentration of 0.25-0.3 ug/ml kinase and 10 μM PIP2. The plate is sealed and incubated for 15 minutes at room temperature. To start the reaction, 3.5 ul of ATP (diluted in 1× reaction buffer) is added per well for a final concentration of 10 μM ATP. The plate is sealed and incubated for 1 hour at room temperature. The reaction is stopped by adding 5 ul of Stop Solution per well and then 5 ul of Detection Mix is added per well. The plate is sealed, incubated for 1 hour at room temperature, and then read on an appropriate plate reader.
`Cc1ccc(NC(=O)c2cnc3ccc(-c4ccc5oc(N)nc5c4)cn23)cn1` [US11547697, Compound 294] was tested, and the IC50 was greater than 10 µM.
For `Nc1nc2cc(-c3ccc4ncc(C(=O)N5CC[C@@H](n6cccn6)C5)n4c3)ccc2o1` [US11547697, Compound 477], the IC50 was greater than 10 µM.
With `Nc1nc2cc(-c3ccc4ncc(C(=O)N5CC(n6cccn6)C5)n4c3)ccc2o1` [US11547697, Compound 479] the IC50 was greater than 10 µM.
For `COc1ncc(-c2ccc3ncc(C(=O)N4CCOCC4)n3c2)cc1NS(=O)(=O)c1ccccc1` [US11547697, Compound 420], the IC50 was greater than 10 µM.
`Nc1nc2cc(-c3ccc4ncc(C(=O)N5CC(N6CCC(F)(F)C6)C5)n4c3)ccc2o1` [US11547697, Compound 502] showed an IC50 greater than 10 µM.
`Nc1nc2ccc(-c3ccc4ncc(C(=O)N5CCOCC5)n4c3)cc2s1` [US11547697, Compound 125] showed an IC50 greater than 10 µM.
In the case of `Nc1nc2cc(-c3ccc4ncc(N5CC(N6CCC(O)CC6)C5)nc4c3)ccc2o1` [US11547697, Compound 341], the IC50 is reported as greater than 10 µM.
`Nc1nc2cc(-c3ccc4ncc(N5CCN(C(=O)C6(N)CC6)CC5)nc4c3)ccc2o1` [US11547697, Compound 226] showed an IC50 greater than 10 µM.
For `Nc1ccc2cc(-c3ccc4nccc(-c5ccncc5)c4c3)ccc2n1` [US11547697, Compound 5], the IC50 was greater than 10 µM.
`Nc1nc2cc(-c3ccc4ncc(C(=O)N5CC[C@@H](F)C5)n4c3)ccc2o1` [US11547697, Compound 475] gave an IC50 greater than 10 µM.

What follows are compounds tested against T1, Phosphatidylinositol 4,5-bisphosphate 3-kinase catalytic subunit delta isoform (Homo sapiens, UniProt O00329) (assay: Inhibition Assay of PI3K).
T1 sequence (O00329 whole entry): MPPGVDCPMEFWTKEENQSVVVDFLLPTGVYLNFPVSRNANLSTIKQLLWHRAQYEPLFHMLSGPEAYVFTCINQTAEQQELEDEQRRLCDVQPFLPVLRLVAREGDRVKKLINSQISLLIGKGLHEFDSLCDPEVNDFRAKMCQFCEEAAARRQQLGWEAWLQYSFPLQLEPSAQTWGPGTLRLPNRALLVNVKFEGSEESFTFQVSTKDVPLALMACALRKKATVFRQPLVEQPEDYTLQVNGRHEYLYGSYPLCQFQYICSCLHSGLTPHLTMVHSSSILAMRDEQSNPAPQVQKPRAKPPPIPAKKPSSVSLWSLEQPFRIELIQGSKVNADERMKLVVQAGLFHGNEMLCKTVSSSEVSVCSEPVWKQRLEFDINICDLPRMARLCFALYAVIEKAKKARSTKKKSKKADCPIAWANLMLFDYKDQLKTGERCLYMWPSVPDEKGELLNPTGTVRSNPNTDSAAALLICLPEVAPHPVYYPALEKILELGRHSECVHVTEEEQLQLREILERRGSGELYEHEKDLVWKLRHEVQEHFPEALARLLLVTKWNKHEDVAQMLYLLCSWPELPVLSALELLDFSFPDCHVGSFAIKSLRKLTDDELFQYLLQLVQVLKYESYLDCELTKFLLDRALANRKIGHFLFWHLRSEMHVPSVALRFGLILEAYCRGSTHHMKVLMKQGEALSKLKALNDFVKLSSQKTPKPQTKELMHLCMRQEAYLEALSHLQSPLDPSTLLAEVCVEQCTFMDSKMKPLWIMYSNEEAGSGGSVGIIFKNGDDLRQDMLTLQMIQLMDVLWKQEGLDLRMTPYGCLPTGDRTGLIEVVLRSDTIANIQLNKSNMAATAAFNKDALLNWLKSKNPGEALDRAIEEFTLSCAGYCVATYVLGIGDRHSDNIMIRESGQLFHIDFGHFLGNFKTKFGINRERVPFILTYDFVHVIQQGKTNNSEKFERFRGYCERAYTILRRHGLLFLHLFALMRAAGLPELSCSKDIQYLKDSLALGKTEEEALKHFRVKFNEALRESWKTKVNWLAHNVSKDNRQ
Description: as §1
With `Nc1nc2cc(-c3ccc4ncc(N5CCN(C6CC6)CC5)nc4c3)ccc2o1` [US11547697, Compound 261] the IC50 was greater than 10 µM.
Work on `Nc1nc2cc(-c3ccn4ncc(C(=O)N5CCOCC5)c4c3)ccc2o1` [US11547697, Compound 347] yielded an IC50 greater than 10 µM.
For `Nc1nc2cc(-c3ccc4nccn4c3)ccc2o1` [US11547697, Compound 40], the IC50 was greater than 10 µM.
For `Nc1nc2c(-c3ccc4ncc(C(=O)N5CCOCC5)n4c3)cccc2o1` [US11547697, Compound 496], the IC50 was greater than 10 µM.
`CC(=O)Nc1n[nH]c2cc(-c3ccc4oc(N)nc4c3)ccc12` [US11547697, Compound 430] showed an IC50 greater than 10 µM.
`C[C@H]1CN(c2cnc3ccc(-c4ccc5nc(N)sc5c4)cc3n2)CCN1` [US11547697, Compound 308] gave an IC50 greater than 10 µM.
`Cc1nc2ccc(-c3ccc4oc(N)nc4c3)nn2c1-c1ccncc1` [US11547697, Compound 56] was tested, and the IC50 was greater than 10 µM.
`Nc1nc2cc(-c3ccc4ncc(N5CCOCC5)n4n3)ccc2o1` [US11547697, Compound 57] gave an IC50 greater than 10 µM.
In the case of `CC(=O)Nc1nc2ccc(-c3ccc4nc(N)oc4c3)cc2s1` [US11547697, Compound 242], the IC50 is reported as greater than 10 µM.
Work on `C[C@@H]1COCCN1C(=O)c1cnc2ccc(-c3ccc4oc(N)nc4c3)cn12` [US11547697, Compound 495] yielded an IC50 greater than 10 µM.
Compound `Nc1nc2cc(-c3ccc4ncn(C5CCNCC5)c(=O)c4c3)ccc2o1` [US11547697, Compound 75] has an IC50 greater than 10 µM.
With `CN1CCN(C(=O)c2cnc3ccc(-c4ccc5nc(N)oc5c4)cn23)CC1` [US11547697, Compound 145] the IC50 was greater than 10 µM.
Work on `CN1CCN(c2cnc3ccc(-c4ccc5nc(N)sc5c4)cc3n2)CC1` [US11547697, Compound 115] yielded an IC50 greater than 10 µM.
Work on `CN(CCN1CCOCC1)c1cnc2ccc(-c3ccc4oc(N)nc4c3)cc2n1` [US11547697, Compound 166] yielded an IC50 greater than 10 µM.
In the case of `CN1CCN(c2cnc3ccc(-c4ccc5sc(N)nc5c4)cc3n2)CC1` [US11547697, Compound 127], the IC50 is reported as greater than 10 µM.
Compound `Nc1nc2cc(-c3ccc4nccc(NC5CCOCC5)c4c3)ccc2o1` [US11547697, Compound 32] has an IC50 greater than 10 µM.
`CN1CCCN(c2cnc3ccc(-c4ccc5oc(N)nc5c4)cc3n2)CC1` [US11547697, Compound 136] was tested, and the IC50 was greater than 10 µM.
`Nc1nc2cc(-c3ccc4c(N)n[nH]c4c3)ccc2o1` [US11547697, Compound 428] was tested, and the IC50 was greater than 10 µM.
`Cc1cc(-c2ccc3nc(N)oc3c2)cn2c(C(=O)N3CCOCC3)cnc12` [US11547697, Compound 449] showed an IC50 greater than 10 µM.
`Nc1nc2cc(-c3ccc4ncc(C(=O)N5CC6CCC(C5)O6)n4c3)ccc2o1` [US11547697, Compound 504] showed an IC50 greater than 10 µM.
In the case of `Nc1nc2ccc(-c3ccc4nc(N)sc4c3)cc2o1` [US11547697, Compound 243], the IC50 is reported as greater than 10 µM.
`Nc1nc2cc(-c3ccc4ncc(N5CCOCC5)nc4c3)ccc2s1` [US11547697, Compound 116] was tested, and the IC50 was greater than 10 µM.
For `Nc1cn2cc(-c3ccc4oc(N)nc4c3)ccc2n1` [US11547697, Compound 245], the IC50 was greater than 10 µM.
`CC1CN(C(=O)c2cnc3ccc(-c4ccc5oc(N)nc5c4)cn23)CCO1` (stereo not given) [US11547697, Compound 201] showed an IC50 greater than 10 µM.
Work on `C[C@H]1COCCN1C(=O)c1cnc2ccc(-c3ccc4oc(N)nc4c3)cn12` [US11547697, Compound 483] yielded an IC50 greater than 10 µM.
`COCCN1CCN(c2cnc3ccc(-c4ccc5oc(N)nc5c4)cc3n2)CC1` [US11547697, Compound 387] showed an IC50 greater than 10 µM.
In the case of `Nc1nc2cc(-c3ccc4ncc(N5CCOCC5)nc4c3)ccc2o1` [US11547697, Compound 64], the IC50 is reported as greater than 10 µM.
With `C[C@H]1CN(c2cnc3ccc(-c4ccc5nc(N)oc5c4)cc3n2)CCN1` [US11547697, Compound 309] the IC50 was greater than 10 µM.
`Nc1nc2cc(-c3ccc4ncn(CCN5CCOCC5)c(=O)c4c3)ccc2o1` [US11547697, Compound 289] showed an IC50 greater than 10 µM.
`Nc1nc2cc(-c3ccc4ncc(=O)[nH]c4c3)ccc2o1` [US11547697, Compound 72] showed an IC50 greater than 10 µM.
For `Nc1nc2cc(-c3ccc4ncc(C(=O)N5CC(F)C5)n4c3)ccc2o1` [US11547697, Compound 468], the IC50 was greater than 10 µM.
`Nc1nc2cc(-c3ccc4ncc(-c5cnn(CCO)c5)nc4c3)ccc2o1` [US11547697, Compound 108] was tested, and the IC50 was greater than 10 µM.
`Nc1nc2cc(-c3ccc4ncn(CCO)c(=O)c4c3)ccc2o1` [US11547697, Compound 184] gave an IC50 greater than 10 µM.
For `Nc1nc2cc(-c3ccn4ncc(C(=O)N5CCCC5)c4c3)ccc2o1` [US11547697, Compound 346], the IC50 was greater than 10 µM.
With `Nc1nc2ccc(-c3ccc4ncc(N5CCOCC5)nc4c3)cc2o1` [US11547697, Compound 117] the IC50 was greater than 10 µM.
For `Nc1nc2cc(-c3ccc4ncc(C(=O)N5CC6(C5)OCCO6)n4c3)ccc2o1` [US11547697, Compound 494], the IC50 was greater than 10 µM.
Compound `Nc1nc2cc(-c3ccc4ncc(N5CC(n6cccn6)C5)nc4c3)ccc2o1` [US11547697, Compound 318] has an IC50 greater than 10 µM.
`Nc1nc2cc(-c3ccc4ncc(C(=O)N5CCCCC5)n4c3)ccc2o1` [US11547697, Compound 196] gave an IC50 greater than 10 µM.
Work on `Nc1nc2cc(-c3ccc4ncc(C(=O)N5CCOCC5)n4n3)ccc2o1` [US11547697, Compound 105] yielded an IC50 greater than 10 µM.
`Nc1nc2ccc(-c3ccc4ncc(C(=O)N5CCOCC5)n4c3)cc2o1` [US11547697, Compound 124] gave an IC50 greater than 10 µM.
Work on `Cc1cc(-c2ccc3ncc(C(=O)N4CCOCC4)n3c2)cc2nc(N)oc12` [US11547697, Compound 364] yielded an IC50 greater than 10 µM.
Compound `Nc1nc2cc(-c3ccc4ncc(N5CCNC(=O)C5)nc4c3)ccc2o1` [US11547697, Compound 135] has an IC50 greater than 10 µM.
`COCCn1cnc2ccc(-c3ccc4oc(N)nc4c3)cc2c1=O` [US11547697, Compound 272] showed an IC50 greater than 10 µM.
`CC(=O)Nc1nc2cc(-c3cc(F)c4oc(N)nc4c3)ccc2s1` [US11547697, Compound 435] showed an IC50 greater than 10 µM.
For `Nc1nc2cc(-c3ccc4nnc(-c5ccncc5)n4c3)ccc2o1` [US11547697, Compound 229], the IC50 was greater than 10 µM.
For `CC(C)N1CCC(n2cnc3ccc(-c4ccc5oc(N)nc5c4)cc3c2=O)CC1` [US11547697, Compound 74], the IC50 was greater than 10 µM.
With `Nc1nc2cc(-c3ccc4ncc(C(=O)N5CCOCC5)n4c3)cnc2o1` [US11547697, Compound 400] the IC50 was greater than 10 µM.
For `Nc1nc2cc(-c3ccc4ncc(C(=O)N5CCn6cncc6C5)n4c3)ccc2o1` [US11547697, Compound 493], the IC50 was greater than 10 µM.
In the case of `Nc1nc2cc(-c3ccc4ncc(C(=O)N5CCOCC5)n4c3)ccc2s1` [US11547697, Compound 126], the IC50 is reported as greater than 10 µM.
`Nc1nc2cc(-c3ccc4sc(N)nc4c3)cc(F)c2o1` [US11547697, Compound 437] gave an IC50 greater than 10 µM.
In the case of `Nc1nc2cc(-c3cc(F)c4oc(N)nc4c3)ccc2o1` [US11547697, Compound 432], the IC50 is reported as greater than 10 µM.
With `CN(C)C1CN(c2cnc3ccc(-c4ccc5oc(N)nc5c4)cc3n2)C1` [US11547697, Compound 366] the IC50 was greater than 10 µM.
With `Nc1nc2cc(-c3ccc4ncc(-c5ccccn5)nc4c3)ccc2o1` [US11547697, Compound 195] the IC50 was greater than 10 µM.
In the case of `Nc1nc2cc(-c3ccc4ncc(C(=O)N(CCO)CCO)n4c3)ccc2o1` [US11547697, Compound 316], the IC50 is reported as greater than 10 µM.
For `CN1CCN(c2cnc3ccc(-c4ccc5nc(N)oc5c4)cc3n2)CC1` [US11547697, Compound 118], the IC50 was greater than 10 µM.
